Assay results published in patent US3954767A, “Piperazine salts of 2,5-dihydroxy benzene sulfonic acid mono- and diesters” (priority 1972, dated 1976).
Structures can show the parent of a compound that is named as a salt.

Assays:
[1] = tested on: rats treated with Triton WR-1339; assay: Hypolipemic action on the rat, Triton WR-1339 method; type: in vivo; details: for Percentage reduction of lipids: Cholesterol / Percentage reduction of lipids: Total Lipids / Percentage reduction of lipids: Triglycerides: Table VI, with respect to Triton WR-1339
Description: The above-mentioned Triton WR-1339 method was selected. The total cholesterol, triglycerides and total lipids were determined in the serum. The amount of Triton WR-1339 administered to the animals was 300 mg/kg. The amount of piperazine 2,5-dihydroxy benzene sulfonate mono-tosylate administered was 2 mMoles/Kg orally. The letter P signifies probability.
The above-mentioned Triton WR-1339 method was selected. The total cholesterol, triglycerides and total lipids were determined in the serum. The results obtained are given in Table V. The amount of Triton WR-1339 administered to the animals was 300 mg/Kg. The amount of the piperazine salt with one mole of the di-0-(p-chloro phenoxy isobutyrate) of 2,5-dihydroxy benzene sulfonic acid administered was 1 mMol/Kg orally. The letter P signifies probability.
In this Triton WR-1339 method, all the compounds are administered at a dose of 2 mMoles/Kg orally excepted those compounds in which is the residue of p-chlorophenoxy isobutyric acid, which are administered orally at a dose corresponding to 2 mMoles of R per Kg, i.e. the amount used is calculated on the basis of the residue R only.

[2] = Acute toxicity (LD50), mouse, oral, method of Reed and Muench; type: in vivo, mouse (albino); details: mouse, in vivo, po
Description: (§1) The acute toxicities for the mouse are also very low. The medium lethal dose (LD50) for the mouse was determined according to the modified method of Reed and Muench (Reed L. J. & Muench H., Am. J. Hyg., 27, 493, 1938).
(§2) 1. ACUTE TOXICITY IN THE MOUSE AND RAT
(§3) 18 to 25 gr albino mouse.
(§4) The LD50 was determined according to the method of Reed and Muench. […]

[3] = tested on: mouse; assay: as above; type: in vivo, mouse (albino); details: Table VI; species and route not printed in table (mouse per b12)
Description: as §1, §2, §3, §4

[4] = tested on: white Leghorn chickens; assay: Hypolipemic action on the chicken; type: in vivo, chicken (white Leghorn)
Description: as §1
This study was performed with white Leghorn chickens, according to the above-mentioned method. The total cholesterol and the total lipids are determined in the plasma.

[5] = Acute toxicity (LD50), rat, oral, method of Reed and Muench; set-up: species or system rat (Sprague-Dawley); details: in vivo
Description: as §2
100 to 150 gr. Sprague-Dawley rats.
The LD50 was determined according to the method of Reed and Muench.

[6] = orally, 2 mMoles of R (p-chlorophenoxy isobutyric acid residue) per Kg
[7] = Table VI, species and route not printed in table (mouse per b12), read-out: LD50 (medium lethal dose)
[8] = Triton 300 mg/kg + compound 2 mMoles/Kg orally, P<0,0005

## CC(C)(Oc1ccc(Cl)cc1)C(=O)Oc1ccc(O)cc1S(=O)(=O)O [calcium 2-O-(p-chlorophenoxyisobutyryl) 2,5-dihydroxy benzene sulfonate]
[1]; [6]
  Percentage reduction of lipids: Cholesterol: 30%
  Percentage reduction of lipids: Total Lipids: 26%
  Percentage reduction of lipids: Triglycerides: 32%
[2]; [7]
  LD50: 3.35 mg/kg

## Cc1ccc(S(=O)(=O)Oc2ccc(O)c(S(=O)(=O)O)c2)cc1 [diethylamine-2,5-dihydroxybenzenesulfonate monotosylate] [diethylamine 2,5-dihydroxy benzene sulfonate mono-tosylate]
[1]; 2 mMoles/Kg orally
  Percentage reduction of lipids: Cholesterol: 23%
  Percentage reduction of lipids: Total Lipids: 31%
  Percentage reduction of lipids: Triglycerides: 32%
[3]
  LD50 (medium lethal dose): 6.588 mg/kg

## CC(C)(Oc1ccc(Cl)cc1)C(=O)Oc1ccc(OC(=O)C(C)(C)Oc2ccc(Cl)cc2)c(S(=O)(=O)O)c1 [magnesium salt of di-O-(p-chloro phenoxy isobutyrate) of 2,5] [magnesium salt of di-O-(p-chlorophenoxy isobutyrate) of 2,5-dihydroxy benzene sulfonic acid]
[1]; [6]
  Percentage reduction of lipids: Cholesterol: 5%
  Percentage reduction of lipids: Total Lipids: 25%
  Percentage reduction of lipids: Triglycerides: 51%
[3]
  LD50 (medium lethal dose): 4.780 mg/kg

## CC(C)(Oc1ccc(Cl)cc1)C(=O)Oc1ccc(O)c(S(=O)(=O)O)c1 [mono-p-chloro phenoxy isobutyrate of pyridine 2,5-dihydroxy benzene sulfonate]
[2]; [7]
  LD50: 900 mg/kg

## Cc1ccc(S(=O)(=O)Oc2ccc(O)c(S(=O)(=O)O)c2)cc1 [morpholine 2,5-dihydroxybenzenesulfonate monotosylate] [morpholine 2.5-dihydroxybenzenesulphonate monotosylate]
[1]; 2 mMoles/Kg orally
  Percentage reduction of lipids: Cholesterol: 12%
  Percentage reduction of lipids: Total Lipids: 31%
  Percentage reduction of lipids: Triglycerides: 23%
[3]
  LD50 (medium lethal dose): 5.301 mg/kg

## O=C(Oc1ccc(OC(=O)c2ccccc2)c(S(=O)(=O)O)c1)c1ccccc1 [morpholine 2.5-dihydroxybenzenesulphonate dibenzoate]
[2]; [7]
  LD50: 4000 mg/kg

## Cc1ccc(S(=O)(=O)Oc2ccc(O)c(S(=O)(=O)O)c2)cc1 [piperazine 2,5-dihydroxybenzenesulfonate monotosylate] [piperazine 2.5-dihydroxybenzenesulphonate monotosylate]
[1]; 2 mMoles/Kg orally
  Percentage reduction of lipids: Cholesterol: 18%
  Percentage reduction of lipids: Total Lipids: 42%
  Percentage reduction of lipids: Triglycerides: 43%
[1]; Triton 300 mg/kg + compound 2 mMoles/Kg orally, 0,0005<P<0,0025
  total cholesterol: 232,3 mg % ml of plasma
[1]; [8]
  total lipids: 1211,4 mg % ml of plasma
  triglycerides: 639,8 mg % ml of plasma
[4]; final relative to initial value, check sample X = 1075
  total lipids, b/a . 100 (Y): 726
[4]; final relative to initial value, check sample X = 1514
  total cholesterol, b/a . 100 (Y): 1017
[4]; final value
  total cholesterol, final value (b): 947,2 mg % ml of plasma
  total lipids, final value (b): 2360,8 mg % ml of plasma
[4]; initial value
  total cholesterol, initial value (a): 93,1 mg % ml of plasma
  total lipids, initial value (a): 325,2 mg % ml of plasma

## Cc1ccc(S(=O)(=O)Oc2ccc(O)c(S(=O)(=O)O)c2)cc1 [piperazine 2.5-dihydroxybenzenesulphonate monotosylate]
[5]; rat female
  LD50: 11900 mg/kg
[5]; rat male
  LD50: > 11900 mg/kg
[2]; mouse female, read-out: LD50
  LD50: > 10800 mg/kg
[2]; mouse male, read-out: LD50
  LD50: > 10800 mg/kg

## CC(C)(Oc1ccc(Cl)cc1)C(=O)Oc1ccc(OC(=O)C(C)(C)Oc2ccc(Cl)cc2)c(S(=O)(=O)O)c1 [piperazine mono-salt of di-O-(p-chlorophenoxy isobutyrate) of 2,5-dihydroxy benzene sulfonic acid]
[5]; rat female
  LD50: 11700 mg/kg
[5]; rat male
  LD50: 11000 mg/kg
[2]; [7]
  LD50: 11000 mg/kg
[2]; mouse female, read-out: LD50
  LD50: 8700 mg/kg
[2]; mouse male, read-out: LD50
  LD50: 11000 mg/kg

## Cc1ccc(S(=O)(=O)Oc2ccc(O)c(S(=O)(=O)O)c2)cc1 [piperidine 2.5-dihydroxybenzenesulphonate monotosylate]
[2]; [7]
  LD50: 5000 mg/kg

## Cc1ccc(S(=O)(=O)Oc2ccc(OS(=O)(=O)c3ccc(C)cc3)c(S(=O)(=O)O)c2)cc1 [pyridine 2,5-dihydroxy benzene sulfonate ditosylate]
[1]; 2 mMoles/Kg orally
  Percentage reduction of lipids: Cholesterol: 17%
  Percentage reduction of lipids: Total Lipids: 31%
  Percentage reduction of lipids: Triglycerides: 44%
[2]; [7]
  LD50: 700 mg/kg

## Cc1ccc(S(=O)(=O)Oc2ccc(O)c(S(=O)(=O)O)c2)cc1 [pyridine 2,5-dihydroxybenzenesulfonate monotosylate] [pyridine 2,5-dihydroxy benzene sulfonate mono-tosy-late]
[1]; 2 mMoles/Kg orally
  Percentage reduction of lipids: Cholesterol: 18%
  Percentage reduction of lipids: Total Lipids: 27%
  Percentage reduction of lipids: Triglycerides: 36%
[3]
  LD50 (medium lethal dose): 680 mg/kg

## CC(C)(Oc1ccc(Cl)cc1)C(=O)Oc1ccc(OC(=O)C(C)(C)Oc2ccc(Cl)cc2)c(S(=O)(=O)O)c1 [pyridine salt of di-O-(p-chloro phenoxy isobutyrate) of 2,5-] [pyridine salt of the di-O-(p-chlorophenoxy isobutyrate) of 2,5-dihydroxy benzene sulfonic acid]
[1]; [6]
  Percentage reduction of lipids: Cholesterol: 20%
  Percentage reduction of lipids: Total Lipids: 31%
  Percentage reduction of lipids: Triglycerides: 32%

## O=C(Oc1ccc(OC(=O)c2ccccc2)c(S(=O)(=O)O)c1)c1ccccc1 [sodium 2,5-dihydroxybenzenesulfonate dibenzoate] [sodium 2.5-dihydroxybenzenesulphonate dibenzoate]
[1]; 2 mMoles/Kg orally
  Percentage reduction of lipids: Cholesterol: 12%
  Percentage reduction of lipids: Total Lipids: 20%
  Percentage reduction of lipids: Triglycerides: 17%

## Cc1ccc(S(=O)(=O)Oc2ccc(O)c(S(=O)(=O)O)c2)cc1 [sodium 2,5-dihydroxybenzenesulfonate monotosylate] [sodium 2,5-dihydroxy benzene sulfonate mono-tosylate]
[1]; 2 mMoles/Kg orally
  Percentage reduction of lipids: Cholesterol: 10%
  Percentage reduction of lipids: Total Lipids: 39%
  Percentage reduction of lipids: Triglycerides: 36%
